In patent US7777030B2, “Compositions and methods for the treatment and prevention of disease” (Centre National de la Recherge Scientifique (CNRS), priority 2005, dated 2010):

Assays:
[1] = tested on: primary mouse hepatocyte culture; experiment: toxicity on primary mouse hepatocyte culture; format: cell-based; settings: tested at different doses (6, 25-100 μg/ml)
[2] = tested on: malaria liver stage (LS) parasites; experiment: effect on sporozoite invasion and malaria liver stage development in hepatocytes; format: cell-based; settings: compounds added at sporozoite invasion and during liver stage development; schizonts counted in 48 hours cultures; FIG. 5

SMILES	toxicity on primary mouse hepatocyte culture [1]	effect on liver parasites / LS development (schizont number) [2]
CN1CNC(=O)NC(Cc2ccccc2)C1=O (stereo not shown) [4b]	non toxic	inhibit significantly and repeatedly
CN1CN(Cc2ccccc2)C(=O)NC(Cc2ccccc2)C1=O (stereo not shown) [8a]	non toxic	inhibit significantly and repeatedly
